# Measurements from patent US20050229276A1, “Method of producing cyclamen root tuber and method of proliferating cyclamen using the same” (Tokyo University of Agricultural, priority 2002, published 2005).
# System: explants from leaves of cyclamen (species: Flamenco)
# Experiment: Culture of explants from leaves (comparative)
# Assay type: cell-based
# Details: NAA 0.05 mg/l, 20 explants planted, 30 days
# Protocol: For comparison, the explants from leaves and petioles of cyclamen (species: Flamenco) were cultured for 30 days by changing the contents of BA and sucrose in a basal medium prepared by adding 0.05 mg/l of NAA and 6 g/l of agar to the ⅓ MS medium and having a pH of 7.0. In all the cases, the root tubers were hardly enlarged by culture and rarely regenerated and accordingly, a clonal plant could not be obtained with high reproducibility.
structure (smiles),measurement,setting,value
"c1ccc(CNc2ncnc3[nH]cnc23)cc1 [BA, benzylaminopurine]",Number of enlarged explants,BA 0.05 mg/l,0
same,Number of regenerate explants,BA 0.05 mg/l,0
same,Number of enlarged explants,"BA 0.05 mg/l, sucrose 30 g/m",1
same,Number of regenerate explants,"BA 0.05 mg/l, sucrose 30 g/m",0
same,Number of enlarged explants,"BA 0.05 mg/l, sucrose 70 g/m",0
same,Number of regenerate explants,"BA 0.05 mg/l, sucrose 70 g/m",0
same,Number of enlarged explants,"BA 0.05 mg/l, sucrose 90 g/m",0
same,Number of regenerate explants,"BA 0.05 mg/l, sucrose 90 g/m",0
same,Number of enlarged explants,BA 0.1 mg/l,1
same,Number of regenerate explants,BA 0.1 mg/l,0
same,Number of enlarged explants,"BA 0.1 mg/l, sucrose 30 g/m",2
same,Number of regenerate explants,"BA 0.1 mg/l, sucrose 30 g/m",1
same,Number of enlarged explants,"BA 0.1 mg/l, sucrose 70 g/m",0
same,Number of regenerate explants,"BA 0.1 mg/l, sucrose 70 g/m",0
same,Number of enlarged explants,"BA 0.1 mg/l, sucrose 90 g/m",0
same,Number of regenerate explants,"BA 0.1 mg/l, sucrose 90 g/m",0
same,Number of enlarged explants,BA 0.5 mg/l,4
same,Number of regenerate explants,BA 0.5 mg/l,1
same,Number of enlarged explants,"BA 0.5 mg/l, sucrose 30 g/m",2
same,Number of regenerate explants,"BA 0.5 mg/l, sucrose 30 g/m",2
same,Number of enlarged explants,"BA 0.5 mg/l, sucrose 70 g/m",1
same,Number of regenerate explants,"BA 0.5 mg/l, sucrose 70 g/m",0
same,Number of enlarged explants,"BA 0.5 mg/l, sucrose 90 g/m",2
same,Number of regenerate explants,"BA 0.5 mg/l, sucrose 90 g/m",0
same,Number of enlarged explants,BA 1 mg/l,4
same,Number of regenerate explants,BA 1 mg/l,2
same,Number of enlarged explants,"BA 1 mg/l, sucrose 30 g/m",6
same,Number of regenerate explants,"BA 1 mg/l, sucrose 30 g/m",3
same,Number of enlarged explants,"BA 1 mg/l, sucrose 70 g/m",3
same,Number of regenerate explants,"BA 1 mg/l, sucrose 70 g/m",1
same,Number of enlarged explants,"BA 1 mg/l, sucrose 90 g/m",5
same,Number of regenerate explants,"BA 1 mg/l, sucrose 90 g/m",1
